Values of other authors as cited in patent publication US9278365B2, “Volatile material dispenser and method of emitting a volatile material” (priority 2014, dated 2016).

| log P (octanol/water partition coefficient) | solubility | Compound |
| --- | --- | --- |
| 4.3 Log P | – | CC(=O)O[C@@H]1C[C@H]2CC[C@]1(C)C2(C)C (racemic) [iso-bornyl acetate] |
| 2 Log P | – | OC/C=C/c1ccccc1 [cinnamic alcohol] |
| 4.4 Log P | – | CC(C=O)Cc1ccc(C(C)(C)C)cc1 (stereo not drawn) [lilial] |
| – | 2.1 Log P | COC(=O)c1ccccc1 [methyl benzoate] |
| 1.11 Log P | – | Cc1ncsc1CCO [sulfurol] |
| 1.29 Log P | – | methy cyclopetenone |
